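Exposure lasted 48 hours, with cells grown in 96-well plates and compounds tested at five concentrations. GI50 marks 50% less growth.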 The source made the active and inactive calls. No stated cut-off is given here; in the data, active = GI50 up to about 1.1 µM and inactive = higher.
Key:
Experiment in all cases: NCI tumour cell line growth inhibition, 48 h
[1] = test system: SK-MEL-2
[2] = test system: SW-620
[3] = test system: SF-268
[4] = test system: NCI-H23
[5] = test system: TK-10
[6] = test system: HCT-15
[7] = test system: COLO 205
[8] = test system: DMS-114
[9] = test system: SNB-75
[10] = test system: CCRF-CEM
[11] = test system: RPMI-8226
[12] = test system: KM-20L2
[13] = test system: SK-MEL-5
[14] = test system: IGROV-1
[15] = test system: SK-MEL-28
[16] = test system: UACC-62
[17] = test system: KM12
[18] = test system: SF-539
[19] = test system: OVCAR-8
[20] = test system: Malme-3M
[21] = test system: HCC 2998
[22] = test system: XF498
[23] = test system: HOP-92
[24] = test system: 786-0
[25] = test system: HCT-116
[26] = test system: UACC-257
[27] = test system: CAKI-1
[28] = test system: HOP-62
[29] = test system: NCI-H522
[30] = test system: DLD-1
[31] = test system: HT-29
[32] = test system: ACHN
[33] = test system: OVCAR-4
[34] = test system: NCI-H226
[35] = test system: M19-MEL
[36] = test system: MOLT-4
[37] = test system: U-251
[38] = test system: DMS-273
[39] = test system: SNB-19
[40] = test system: A549
[41] = test system: NCI-H460
[42] = test system: SR
[43] = test system: OVCAR-3
[44] = test system: HL-60
[45] = test system: M14
[46] = test system: K562
[47] = test system: SF-295
[48] = test system: UO-31
[49] = test system: OVCAR-5
[50] = test system: MDA-MB-435
[51] = test system: Hs-578T
[52] = test system: SK-OV-3
[53] = test system: SN12C
[54] = test system: MDA-MB-231
[55] = test system: DU-145
[56] = test system: SNB-78
[57] = test system: A498
[58] = test system: LOX IMVI
[59] = test system: BT-549
[60] = test system: T47D
[61] = test system: MDA-N
[62] = test system: MCF7
[63] = test system: LXFL 529
[64] = test system: NCI/ADR-RES
[65] = test system: EKVX
[66] = test system: RXF 393
[67] = test system: PC-3

CC[N+](CC)(CC)Cc1cn(S(=O)(=O)c2ccccc2)c2ccccc12
GI50 [1]: > 100 µM (inactive) | GI50 [2]: > 100 µM (inactive) | GI50 [3]: > 100 µM (inactive) | GI50 [4]: > 100 µM (inactive) | GI50 [5]: > 100 µM (inactive) | GI50 [6]: > 100 µM | GI50 [7]: > 100 µM (inactive) | GI50 [8]: > 100 µM (inactive) | GI50 [9]: 40.7 µM (inactive) | GI50 [10]: > 100 µM (inactive) | GI50 [11]: > 100 µM (inactive) | GI50 [12]: > 100 µM (inactive) | GI50 [13]: > 100 µM (inactive) | GI50 [14]: > 100 µM (inactive) | GI50 [15]: > 100 µM (inactive) | GI50 [16]: > 100 µM (inactive) | GI50 [17]: > 100 µM (inactive) | GI50 [18]: > 100 µM (inactive) | GI50 [19]: > 100 µM (inactive) | GI50 [20]: > 100 µM (inactive) | GI50 [21]: > 100 µM (inactive) | GI50 [22]: > 100 µM (inactive) | GI50 [23]: > 100 µM (inactive) | GI50 [24]: > 100 µM (inactive) | GI50 [25]: > 100 µM (inactive) | GI50 [26]: > 100 µM (inactive) | GI50 [27]: > 100 µM (inactive) | GI50 [28]: > 100 µM (inactive) | GI50 [29]: > 100 µM (inactive) | GI50 [30]: > 100 µM (inactive) | GI50 [31]: > 100 µM (inactive) | GI50 [32]: > 100 µM (inactive) | GI50 [33]: > 100 µM (inactive) | GI50 [34]: > 100 µM (inactive) | GI50 [35]: > 100 µM (inactive) | GI50 [36]: > 100 µM (inactive) | GI50 [37]: > 100 µM (inactive) | GI50 [38]: > 100 µM (inactive) | GI50 [39]: > 100 µM (inactive) | GI50 [40]: > 100 µM (inactive) | GI50 [41]: > 100 µM (inactive) | GI50 [42]: > 100 µM (inactive) | GI50 [43]: > 100 µM (inactive) | GI50 [44]: > 100 µM (inactive) | GI50 [45]: > 100 µM (inactive) | GI50 [46]: > 100 µM (inactive) | GI50 [47]: > 100 µM (inactive) | GI50 [48]: > 100 µM (inactive) | GI50 [49]: > 100 µM (inactive)

CCOc1ccc2nc(NC(=O)C(=O)C(C(=O)c3ccccc3-c3ccccc3)C3OC(=O)c4ccccc43)sc2c1 (stereo unspecified)
GI50 [1]: 17.8 µM (inactive) | GI50 [2]: 26.6 µM (inactive) | GI50 [50]: 25.4 µM (inactive) | GI50 [51]: 34.8 µM (inactive) | GI50 [3]: 19.8 µM (inactive) | GI50 [4]: 17.9 µM (inactive) | GI50 [5]: 16.5 µM (inactive) | GI50 [6]: 22.4 µM | GI50 [52]: 25.9 µM (inactive) | GI50 [7]: 19.4 µM (inactive) | GI50 [53]: 11.7 µM (inactive) | GI50 [8]: 14.8 µM (inactive) | GI50 [9]: 21.3 µM (inactive) | GI50 [10]: 21.1 µM (inactive) | GI50 [11]: 12.2 µM (inactive) | GI50 [12]: 22.4 µM (inactive) | GI50 [13]: 16.2 µM (inactive) | GI50 [14]: 26.7 µM (inactive) | GI50 [54]: 25.9 µM (inactive) | GI50 [15]: 20.2 µM (inactive) | GI50 [16]: 16.4 µM (inactive) | GI50 [17]: 8.93 µM (inactive) | GI50 [55]: 21.9 µM (inactive) | GI50 [18]: 8.32 µM (inactive) | GI50 [19]: 8.22 µM (inactive) | GI50 [20]: 13.8 µM (inactive) | GI50 [21]: 18.5 µM (inactive) | GI50 [22]: 21.3 µM (inactive) | GI50 [56]: 18.6 µM (inactive) | GI50 [23]: 17.5 µM (inactive) | GI50 [57]: 22.1 µM (inactive) | GI50 [24]: 16.5 µM (inactive) | GI50 [58]: 17.5 µM (inactive) | GI50 [25]: 18.4 µM (inactive) | GI50 [26]: 22.4 µM (inactive) | GI50 [27]: 23.2 µM (inactive) | GI50 [59]: 16.7 µM (inactive) | GI50 [60]: 13.9 µM (inactive) | GI50 [28]: 25.5 µM (inactive) | GI50 [61]: 19.6 µM (inactive) | GI50 [29]: 16.7 µM (inactive) | GI50 [62]: 21.2 µM (inactive) | GI50 [30]: 29.6 µM (inactive) | GI50 [63]: 17.4 µM (inactive) | GI50 [31]: 19.4 µM (inactive) | GI50 [32]: 30.2 µM (inactive) | GI50 [64]: 12.1 µM (inactive) | GI50 [33]: 35.2 µM (inactive) | GI50 [65]: 19.8 µM (inactive) | GI50 [34]: 5.31 µM (inactive) | GI50 [35]: 19.1 µM (inactive) | GI50 [36]: 13.2 µM (inactive) | GI50 [37]: 15 µM (inactive) | GI50 [38]: 23.1 µM (inactive) | GI50 [39]: 14 µM (inactive) | GI50 [40]: 26.4 µM (inactive) | GI50 [66]: 13.4 µM (inactive) | GI50 [41]: 19.5 µM (inactive) | GI50 [42]: 9.79 µM (inactive) | GI50 [43]: 18.7 µM (inactive) | GI50 [44]: 22.8 µM (inactive) | GI50 [45]: 27.6 µM (inactive) | GI50 [46]: 22.3 µM (inactive) | GI50 [47]: 21.6 µM (inactive) | GI50 [48]: 22.4 µM (inactive) | GI50 [67]: 18.2 µM (inactive) | GI50 [49]: 44.3 µM (inactive)
